Experimental data published in ChEMBL document CHEMBL3865792, “Antioxidant and antitumor activity of trolox, trolox succinate, and α-tocopheryl succinate conjugates with nitroxides” (Eur J Med Chem, 2016).

What was measured:
[1] = Cytotoxicity against mouse LMTK cells assessed as reduction in cell viability after 72 hrs by MTT assay; type: toxicity
[2] = Cytotoxicity against human RPMI8226 cells assessed as reduction in cell viability after 72 hrs by MTT assay; type: functional, cell-based; details: RPMI-8226, 72 h
[3] = Ratio of IC50 for human U937 cells to concentration causing antioxidant activity in Salmonella typhimurium TA102 harboring […] mutant; type: functional, U-937
[4] = Cytotoxicity against human MT4 cells assessed as reduction in cell viability after 72 hrs by MTT assay; type: functional, cell-based; details: MT4, 72 h
[5] = Cytotoxicity against hamster AG17-1 cells assessed as reduction in cell viability at 300 uM after 72 hrs by MTT assay; type: toxicity, cell-based, Cricetulus griseus; details: Chinese hamster, read-out: INH
[6] = test system: Salmonella enterica subsp. enterica serovar Typhimurium; experiment: Antioxidant activity in Salmonella typhimurium TA102 harboring […] mutant assessed as inhibition of t-BuO2H-dependant mutant formation at 3 uM preincubated with compound followed by t-BuO2H addition after 48 hrs by Ames test; type: functional
[7] = Ratio of IC50 for human CEM13 cells to concentration causing antioxidant activity in Salmonella typhimurium TA102 harboring […] mutant; type: functional
[8] = test system: Salmonella enterica subsp. enterica serovar Typhimurium; experiment: Antioxidant activity in Salmonella typhimurium TA102 harboring […] mutant assessed as inhibition of t-BuO2H-dependant mutant formation at 0.3 uM preincubated with compound followed by t-BuO2H addition after 48 hrs by Ames test; type: functional
[9] = Ratio of IC50 for human MT4 cells to concentration causing antioxidant activity in Salmonella typhimurium TA102 harboring […] mutant; type: functional
[10] = Ratio of IC50 for human HEPG2 cells to concentration causing antioxidant activity in Salmonella typhimurium TA102 harboring […] mutant; type: functional
Salmonella typhimurium = experiment: Genotoxicity in Salmonella typhimurium TA102 harboring […] mutant assessed as frequency of reversion from histidine auxotrophy to prototrophy at 30 mM after 48 hrs by Ames test (reference value: 209 +/- 10 No _unit); type: toxicity, organism-based; details: salmonella enterica subsp. enterica serovar typhimurium, 30000 µM
[11] = Cytotoxicity against human U937 cells assessed as reduction in cell viability after 72 hrs by MTT assay; type: functional, cell-based; details: U-937, 72 h
[12] = Cytotoxicity against human CEM13 cells assessed as reduction in cell viability after 72 hrs by MTT assay; type: functional, cell-based; details: CEM13, 72 h
[13] = Cytotoxicity against human MCF7 cells assessed as reduction in cell viability after 72 hrs by MTT assay; type: functional, cell-based; details: MCF7, 72 h
[14] = Cytotoxicity against human HepG2 cells assessed as reduction in cell viability after 72 hrs by MTT assay; type: functional, cell-based; details: HepG2, 72 h
[15] = test system: Salmonella enterica subsp. enterica serovar Typhimurium; experiment: Antioxidant activity in Salmonella typhimurium TA102 harboring […] mutant assessed as inhibition of t-BuO2H-dependant mutant formation at 30 uM preincubated with compound followed by t-BuO2H addition after 48 hrs by Ames test; type: functional
[16] = Cytotoxicity against mouse LMTK cells assessed as reduction in cell viability at 300 uM after 72 hrs by MTT assay; type: toxicity; details: read-out: INH
[17] = Genotoxicity in Escherichia coli PQ37 expressing lacZ gene assessed as ratio of inducible beta-galactosidase activity to alkaline phosphatase activity at 30 mM after 2 hrs by SOS-chromotest relative to control; type: toxicity; details: Escherichia coli PQ37 cells expressing lacZ gene, read-out: FC
[18] = Cytotoxicity against hamster AG17-1 cells assessed as reduction in cell viability after 72 hrs by MTT assay; type: toxicity, cell-based, Cricetulus griseus; details: Chinese hamster
[19] = Ratio of IC50 for human MCF7 cells to concentration causing antioxidant activity in Salmonella typhimurium TA102 harboring […] mutant; type: functional
[20] = Ratio of IC50 for human RPMI8226 cells to concentration causing antioxidant activity in Salmonella typhimurium TA102 harboring […] mutant; type: functional, RPMI-8226
[21] = Cytotoxicity against human HepG2 cells assessed as reduction in cell viability at 300 uM after 72 hrs by MTT assay; type: functional; details: HepG2, 72 h
[22] = Cytotoxicity against human MCF7 cells assessed as reduction in cell viability at 300 uM after 72 hrs by MTT assay; type: functional; details: MCF7, 72 h
[23] = Cytotoxicity against human CEM13 cells assessed as reduction in cell viability at 300 uM after 72 hrs by MTT assay; type: functional; details: CEM13, 72 h
[24] = Cytotoxicity against human RPMI8226 cells assessed as reduction in cell viability at 300 uM after 72 hrs by MTT assay; type: functional; details: RPMI-8226, 72 h

SMILES	IC50 at 72 h [1] [µM]	IC50 [2] [µM]	Ratio [3]	IC50 [4] [µM]	inhibition [6] [%]	Ratio [7]	inhibition [8] [%]	Ratio [9]	Ratio [10]	Activity (Salmonella typhimurium)	IC50 [11] [µM]	IC50 [12] [µM]	IC50 [13] [µM]	IC50 [14] [µM]	inhibition [15] [%]	cytotoxicity at 72 h, 300 µM [16] [%]	fold induction at 2 h, 30000 µM [17]	IC50 at 72 h [18] [µM]	Ratio [19]	Ratio [20]	other results
Cc1c(C)c2c(c(C)c1OC(=O)CCC(=O)NCC1CC(C)(C)N([O])C1(C)C)CC[C@@](C)(CCC[C@H](C)CCC[C@H](C)CCCC(C)C)O2 (some centres undefined)	> 300	217	100 - 1000	92	4	100 - 1000	1	100 - 1000	100 - 1000	215	137	105	260	> 300	24	7	1	> 300	100 - 1000	100 - 1000	cytotoxicity at 72 h, 300 µM [5]: 32%; inhibition at 300 µM [21]: 10%
Cc1c(C)c2c(c(C)c1O)CCC(C)(C(=O)NCC1CC(C)(C)N([O])C1(C)C)O2 (centres undefined)	300	70	100 - 1000	231	21.5	100 - 1000	26	100 - 1000	100 - 1000	225	134	> 300	> 300	> 300	17.7	25	1	192	100 - 1000	100 - 1000	inhibition at 300 µM [22]: 34%; inhibition at 300 µM [23]: 32%; inhibition at 300 µM [21]: 38%
Cc1c(C)c2c(c(C)c1OC(=O)CCC(=O)NC1CC(C)(C)N([O])C(C)(C)C1)CCC(C)(C(=O)NC1CC(C)(C)N([O])C(C)(C)C1)O2 (centres undefined)	133	68	100 - 1000	41	25	100 - 1000	7	100 - 1000	100 - 1000	203	72	> 300	62	42	25		1	54	100 - 1000	100 - 1000	inhibition at 300 µM [23]: 33%
Cc1c(C)c2c(c(C)c1OC(=O)CCC(=O)NC1CC(C)(C)N([O])C(C)(C)C1)CC[C@@](C)(CCC[C@H](C)CCC[C@H](C)CCCC(C)C)O2	> 300	> 300	100 - 1000	53	29	100 - 1000	24	100 - 1000	100 - 1000	222	76	146	> 300	> 300	20	19	1.1	> 300	100 - 1000	100 - 1000	cytotoxicity at 72 h, 300 µM [5]: 30%; inhibition at 300 µM [22]: 28%; inhibition at 300 µM [24]: 13%; inhibition at 300 µM [21]: 5%
Cc1c(C)c2c(c(C)c1O)CCC(C)(C(=O)NC1CC(C)(C)N([O])C(C)(C)C1)O2 (centres undefined)	252	39	100 - 1000	55	21.5	100 - 1000	11	100 - 1000	100 - 1000	218	161	> 300	58	54	4.1		1.4	186	100 - 1000	100 - 1000	inhibition at 300 µM [23]: 32%
